*1 amine or outer side, *2 acyl side, *3 side chain or, on linkers, in order; H or OH if unused. Where a SMILES comes first, the peptide text is derived from it. Bridges are numbered along the chain shown (N, C = ends). Roman numbers before positions name the chains, in order. [ ]: non-standard residue; d: D form. Actinocin(9to1) = Cc1c2oc3c(C)ccc(C(=O)[*:1])c3nc-2c(C(=O)[*:2])c(N)c1=O; NMeV = CN[C@H](C(=O)O)C(C)C; Sar = CNCC(=O)O
Assays:
hypothalamic GT1-7 cells = experiment: IκBα mRNA levels in GT1-7 cells after TGF-β1 treatment; assay type: cell-based; conditions: transcription inhibitor added to TGF-β1-treated cells
Excerpt: TGF-β degrades IκBα mRNA to atypically activate NF-κB: RNA SGs/PBs have the function to degrade mRNAs by targeting the AU-rich element (AUE) at the 3′ untranslated region (UTR) (36-38). […] This information led to the suspicion that TGF-β could work to degrade IκBα mRNA. […] To test if TGF-β induced IκBα mRNA decay is accountable for the glucose metabolism disorder, an experiment was designed to study if the pro-diabetic effect of brain TGF-β excess could be reversed through directly increasing hypothalamic IκBα mRNA. Using an approach which was established previously (23), a lentiviral system was employed to deliver exogenous Iκbα mRNA into the mediobasal hypothalamus of chow-fed C57BL/6 mice, and indeed, this lentivirus-delivered Iκbα mRNA prevented TGF-β1 injection from activating hypothalamic NF-κB (FIG. 5f). Metabolic analysis confirmed that this treatment attenuated the effect of TGF-β1 from impairing insulin-dependent glucose control (FIG. 5g).
Cell culture. GT1-7 cells were cultured as described previously (14). Briefly, GT1-7 cells were maintained in Dulbecco's Modified Eagle's Medium (Invitrogen) with 10% fetal bovine serum (Hyclone) and penicillin/streptomycin (Invitrogen), at 37° C. in a humidified atmosphere containing 5% CO2. Cells were fasted in serum-free medium for an overnight period, and then were subjected to TGF-β1 treatment at the indicated dose and time course.

[1] = test system: C57BL/6 mice with HFD-induced obesity; experiment: Third-ventricle injection of TGFβ antagonist, GTT and ITT in mice with HFD-induced obesity; assay type: in vivo; conditions: HFD for 3 months; single injection in the third ventricle, overnight-fasted; vs vehicle; 2-hour treatment duration
Excerpt: (§1) Central TGFβ blockade reverses glucose disorder under obesity or aging: It was studied whether TGFβ blockade could be applied to the CNS in order to reverse glucose and insulin disorders under disease conditions. To address this question, a mouse model was employed with HFD-induced obesity and therefore glucose and insulin intolerance. In this study, C57BL/6 mice were maintained under a HFD vs. a chow for 3 months. Subsequently, TGFβ antagonist SB431542 vs. vehicle was administrated to overnight-fasted mice through pre-implanted cannula. […] In parallel, using aging paradigm, it was further asked if TGFβ blockade could be used to intervene with glucose and insulin disorders independently of HFD feeding. To address this question, a similar procedure was applied to young vs. old mice; both mice were maintained on a normal chow since weaning. As shown in FIG. 7e-h, aging was associated with impairment of glucose tolerance and insulin tolerance in control group. […] Altogether, central inhibition of TGFβ through a pharmacological approach acutely normalizes the brain function to improve glucose and insulin homeostasis and treat type-2 diabetes.
(§2) Animals. […] Food intake and body weight of mice were measured using a laboratory scale. […] Blood glucose levels during GTT and ITT were measured with LifeScan® blood glucose monitoring system. […]

[2] = test system: old mice maintained on a normal chow; experiment: Third-ventricle injection of TGFβ antagonist, GTT and ITT in aging paradigm; assay type: in vivo; conditions: hypothalamic third-ventricle injection
Excerpt: as §1, §2

Row | Compound | IκBα mRNA decay (hypothalamic GT1-7 cells) | glucose intolerance (GTT) [1] | insulin intolerance (ITT) [1] | glucose intolerance (GTT) [2] | insulin intolerance (ITT) [2]
1 | Cc1c2oc3c(C)ccc(C(=O)N[C@@H]4C(=O)N[C@H](C(C)C)C(=O)N5CCC[C@H]5C(=O)N(C)CC(=O)N(C)[C@@H](C(C)C)C(=O)O[C@@H]4C)c3nc-2c(C(=O)N[C@@H]2C(=O)N[C@H](C(C)C)C(=O)N3CCC[C@H]3C(=O)N(C)CC(=O)N(C)[C@@H](C(C)C)C(=O)O[C@@H]2C)c(N)c1=O [actinomycin D, reference compound] (I: T[dV]P[Sar][NMeV] / II: T[dV]P[Sar][NMeV]; ester I:1-I:C, II:1-II:C; linker I:N-II:N via Actinocin(9to1)) | further accelerated |  |  |  | 
2 | NC(=O)c1ccc(-c2nc(-c3ccc4c(c3)OCO4)c(-c3ccccn3)[nH]2)cc1 [SB431542, 4-[4-(1,3-benzodioxol-5-yl)-5-(2-pyridinyl)-1H-imidazol-2-yl]benzamide] |  | significantly reduced | significantly reduced | significant reductions | significant reductions

— patent US20170114128A1, “USE OF TGF-BETA ANTAGONISTS OF TREAT TYPE-2 DIABETES” (ALBERT EINSTEIN COLLEGE OF MEDICINE, INC., priority 2014, published 2017)
